SMILES strings stand for the structures.

The record followed here is patent publication US20230242530A1, “8-(AZETIDIN-1-YL)-[1,2,4]TRIAZOLO[1,5-A]PYRIDINYL COMPOUNDS, COMPOSITIONS AND METHODS OF USE THEREOF” (Genentech, Inc., priority 2016, published 2023).

Assay [1] deals with T1, isolated recombinant JAK2 kinase domain (Homo sapiens, UniProt O60674).
T1 construct: isolated recombinant JAK1 and JAK2 kinase domain
The assay can be described thus: JAK enzyme assay, JAK2 kinase domain (Caliper LabChip). The note with it: 0.2 nM JAK2, ATP 25 μM, Morrison tight binding model. The format is biochemical. The method in brief:
(§1)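 Recombinant kinase domains phosphorylated a 5-carboxyfluorescein-labelled JAK3-derived peptide for 30 min at 22 °C, and the reaction was stopped with EDTA (50 mM final). Product fraction was measured by Caliper LabChip mobility shift. Ki came from Morrison tight-binding fits corrected for ATP competition (Ki=Ki,app/(1+[ATP]/Km,app)).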

Assay [2] concerns the target T2, isolated recombinant JAK1 kinase domain (Homo sapiens, UniProt P23458).
T2 construct: isolated recombinant JAK1 and JAK2 kinase domain
The assay can be described thus: JAK enzyme assay, JAK1 kinase domain (Caliper LabChip). The format is biochemical. As to conditions: 1.5 nM JAK1, ATP 25 μM, Morrison tight binding model. The method, boiled down:
as §1

Assay [3] has as its system JAK1-dependent STAT6 phosphorylation downstream of IL-13 stimulation in BEAS-2B cells. Briefly: JAK1 pathway assay in cell lines: IL-13 p-STAT6 BEAS-2B. The format is cell-based. As to conditions: BEAS-2B human bronchial epithelial cells, 1 hr compound, IL-13 15 min, MSD readout. The method, boiled down: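 BEAS-2B cells plated a day ahead in complete growth medium; compounds added 1 hr at 37 °C (0.2% DMSO final), then IL-13 at lot-specific EC90 for 15 min at 37 °C. Phospho-STAT6 in lysates measured by MSD; EC50 is 50% inhibition relative to DMSO control.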

T1 sequence (O60674 849-1124 limits assumed): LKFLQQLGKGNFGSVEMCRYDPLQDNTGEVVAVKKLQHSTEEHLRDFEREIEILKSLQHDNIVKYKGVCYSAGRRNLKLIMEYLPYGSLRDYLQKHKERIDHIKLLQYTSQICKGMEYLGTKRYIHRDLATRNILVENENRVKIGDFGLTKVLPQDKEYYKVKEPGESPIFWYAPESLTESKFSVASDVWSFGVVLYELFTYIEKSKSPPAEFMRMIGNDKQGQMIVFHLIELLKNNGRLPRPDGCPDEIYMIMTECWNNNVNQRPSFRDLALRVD
T2 sequence (P23458 875-1153 limits assumed): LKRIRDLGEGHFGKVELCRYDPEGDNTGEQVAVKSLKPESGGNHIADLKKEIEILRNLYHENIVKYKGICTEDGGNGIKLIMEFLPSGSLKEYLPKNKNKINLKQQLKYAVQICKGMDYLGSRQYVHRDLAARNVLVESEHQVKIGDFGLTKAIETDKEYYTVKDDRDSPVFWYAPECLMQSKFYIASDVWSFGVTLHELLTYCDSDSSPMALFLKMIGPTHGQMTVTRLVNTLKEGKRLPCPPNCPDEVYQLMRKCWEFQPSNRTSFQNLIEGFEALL

What is called Ki is a dissociation constant, usually derived from enzyme kinetics or from competition with a known ligand. In general, EC50 refers to the midpoint of the concentration-response curve. In the case of `CC(C)c1cnn(C2(CC#N)CN(c3cccn4nc(Nc5cnn(C)c5)nc34)C2)c1` [Example 138, 2-[3-(4-isopropylpyrazol-1-yl)-1-[2-[(l-methylpyrazol-4-yl)amino]-[1,2,4]triazolo[1,5-a]pyridin-8-yl]azetidin-3-yl]acetonitrile], the Ki worked out at 0.3 nM in assay [1] and 0.2 nM in assay [2]. The compound also showed an EC50 in assay [3] of 16 nM.
On to `COc1cnn(C2(CC#N)CN(c3cccn4nc(Nc5cn[nH]c5)nc34)C2)c1` [Example 139, 2-[3-(4-methoxypyrazol-1-yl)-1-[2-(1H-pyrazol-4-ylamino)-[1,2,4]triazolo[1,5-a]pyridin-8-yl]azetidin-3-yl]acetonitrile], for which the Ki in assay [1] turned out to be 0.9 nM; in assay [2] it was 0.4 nM. The same compound returned an EC50 in assay [3] of 39 nM.
For `N#CCC1(n2cc(C3CC3)cn2)CN(c2cccn3nc(Nc4cn[nH]c4)nc23)C1` [Example 140, 2-[3-(4-cyclopropylpyrazol-1-yl)-1-[2-(1H-pyrazol-4-ylamino)-[1,2,4]triazolo[1,5-a]pyridin-8-yl]azetidin-3-yl]acetonitrile], in that order: 0.2 nM, 0.1 nM and 11 nM.
For `CC(C)c1cnn(C2(CC#N)CN(c3cccn4nc(Nc5cn[nH]c5)nc34)C2)c1` [Example 141, 2-[3-(4-isopropylpyrazol-1-yl)-1-[2-(1H-pyrazol-4-ylamino)-[1,2,4]triazolo[1,5-a]pyridin-8-yl]azetidin-3-yl]acetonitrile], in that order: 0.1 nM, 0.1 nM and 9 nM.
In the case of `Cn1cc(Nc2nc3c(N4CC(CC#N)(n5cc(C6CC6)cn5)C4)cccn3n2)cn1` [Example 142, 2-[3-(4-cyclopropylpyrazol-1-yl)-1-[2-[(l-methylpyrazol-4-yl)amino]-[1,2,4]triazolo[1,5-a]pyridin-8-yl]azetidin-3-yl]acetonitrile], the Ki in assay [1] is 0.5 nM; in assay [2], 0.4 nM. The EC50 in assay [3] was 14 nM.
For `CCc1cnn(C2(CC#N)CN(c3cccn4nc(Nc5cnn(CC(=O)N(C)C)c5)nc34)C2)c1` [Example 143, 2-[4-[[8-[3-(cyanomethyl)-3-(4-ethylpyrazol-1-yl)azetidin-1-yl]-[1,2,4]triazolo[1,5-a]pyridin-2-yl]amino]pyrazol-1-yl]-N,N-dimethyl-acetamide], in that order: 1.7 nM, 0.6 nM and 31 nM.
As to `CSc1cnn(C2(CC#N)CN(c3cccn4nc(Nc5cn[nH]c5)nc34)C2)c1` [Example 144, 2-[3-(4-methylsulfanyIpyrazol-1-yl)-1-[2-(1H-pyrazol-4-ylamino)-[1,2,4]triazolo[1,5-a]pyridin-8-yl]azetidin-3-yl]acetonitrile], the Ki in assay [1] worked out at 0.3 nM; in assay [2], 0.1 nM. For the same compound, a half-maximal effect in assay [3] (EC50) was put at 7 nM.
For `Cn1cc(Nc2nc3c(N4CC(CC#N)(n5cc(OC(F)F)cn5)C4)cccn3n2)cn1` [Example 145, 2-[3-[4-(difluoromethoxy)pyrazol-1-yl]-1-[2-[(l-methylpyrazol-4-yl)amino]-[1,2,4]triazolo[1,5-a]pyridin-8-yl]azetidin-3-yl]acetonitrile], in that order: 0.3 nM, 0.2 nM and 6 nM.
For `N#CCC1(n2cc(OC(F)F)cn2)CN(c2cccn3nc(Nc4cn[nH]c4)nc23)C1` [Example 146, 2-[3-[4-(difluoromethoxy)pyrazol-1-yl]-1-[2-(1H-pyrazol-4-ylamino)-[1,2,4]triazolo[1,5-a]pyridin-8-yl]azetidin-3-yl]acetonitrile], in that order: 0.3 nM, 0.2 nM and 7 nM.
For `CSc1cnn(C2(CC#N)CN(c3cccn4nc(Nc5cnn(C)c5)nc34)C2)c1` [Example 147, 2-[1-[2-[(1-methylpyrazol-4-yl)amino]-[1,2,4]triazolo[1,5-a]pyridin-8-yl]-3-(4-methylsulfanylpyrazol-1-yl)azetidin-3-yl]acetonitrile], in that order: 0.6 nM, 0.3 nM and 10 nM.
Regarding `CCc1cnn(C2(CC#N)CN(c3cccn4nc(Nc5cnn(CC(F)F)c5)nc34)C2)c1` [Example 148, 2-[1-[2-[[1-(2,2-difluoroethyl)pyrazol-4-yl]amino]-[1,2,4]triazolo[1,5-a]pyridin-8-yl]-3-(4-ethylpyrazol-1-yl)azetidin-3-yl]acetonitrile], the values for the Ki in assay [1] and in assay [2] were 0.4 nM and 0.1 nM, respectively. The compound also displayed an EC50 in assay [3] of 8 nM.
On to `N#CCC1(n2cc(CCF)cn2)CN(c2cccn3nc(Nc4cn[nH]c4)nc23)C1` [Example 149, 2-[3-[4-(2-fluoroethyl)pyrazol-1-yl]-1-[2-(1H-pyrazol-4-ylamino)-[1,2,4]triazolo[1,5-a]pyridin-8-yl]azetidin-3-yl]acetonitrile], for which the Ki in assay [1] is 0.6 nM; in assay [2], 0.3 nM. This compound had an EC50 in assay [3] of 21 nM.
For `N#CCC1(n2cc(OC(F)F)cn2)CN(c2cccn3nc(Nc4cnn(CC(F)F)c4)nc23)C1` [Example 150, 2-[1-[2-[[1-(2,2-difluoroethyl)pyrazol-4-yl]amino]-[1,2,4]triazolo[1,5-a]pyridin-8-yl]-3-[4-(difluoromethoxy)pyrazol-1-yl]azetidin-3-yl]acetonitrile], in that order: 0.2 nM, 0.1 nM and 6 nM.
For `N#CCC1(n2cc(SC(F)F)cn2)CN(c2cccn3nc(Nc4cn[nH]c4)nc23)C1` [Example 151, 2-[3-[4-(difluoromethylsulfanyl)pyrazol-1-yl]-1-[2-(1H-pyrazol-4-ylamino)-[1,2,4]triazolo[1,5-a]pyridin-8-yl]azetidin-3-yl]acetonitrile], in that order: 1.4 nM, 0.1 nM and 42 nM.
The like results for `CCc1cnn(C2(CC#N)CN(c3cccn4nc(Nc5cnn[nH]5)nc34)C2)c1` [Example 152, 2-(1-(2-((1H-1,2,3-triazol-5-yl)amino)-[1,2,4]triazolo[1,5-a]pyridin-8-yl)-3-(4-ethyl-1H-pyrazol-1-yl)azetidin-3-yl)acetonitrile] were, in that order, 0.1 nM, 0.7 nM and 5 nM.
